Reference: ChEMBL document CHEMBL5543125, “Discovery of 2,3-Dihydro[1,4]dioxino[2,3-g]benzofuran Derivatives as Protease Activated Receptor 4 (PAR4) Antagonists with Potent Antiplatelet Aggregation Activity and Low Bleeding Tendency” (J Med Chem, 2024)
Activity calls are given as the source filed them. The calls are words filed in the database; no cut-off is given here.

Tests used:
[1] = Metabolic stability in human liver microsomes assessed as half life at 1 uM preincubated for 1 hr followed by NADPH addition and measured upto 60 mins by LC-MS/MS analysis; type: ADME, Microsome; details: time < 120 min
[2] = test system: Platelet; experiment: Inhibition of platelet aggregation in human platelet rich plasma preincubated for 5 mins followed by aggregation inducer addition and measured after 5 mins by light transmission aggregometry; type: functional, cell-based
[3] = test system: Platelet; experiment: Inhibition of platelet aggregation in human platelet rich plasma at 20 uM preincubated for 5 mins followed by aggregation inducer addition and measured after 5 mins by light transmission aggregometry relative to control; type: functional; details: 10 min
[4] = molecular target: T1, Proteinase-activated receptor 4 (Mus musculus) (UniProt O88634); experiment: Antagonist activity at PAR4 in ICR mouse plasma assessed as inhibition of PAR4-activated peptide AYPGPK-NH2 induced platelet aggregation at 200 to 1000 nM preincubated for 5 mins followed by aggregation inducer addition and measured after 5 mins by light transmission aggregometry; type: cell-free; details: filed as antagonist, dose 200-1000 nM, time 10.0 min
T1 sequence (whole entry): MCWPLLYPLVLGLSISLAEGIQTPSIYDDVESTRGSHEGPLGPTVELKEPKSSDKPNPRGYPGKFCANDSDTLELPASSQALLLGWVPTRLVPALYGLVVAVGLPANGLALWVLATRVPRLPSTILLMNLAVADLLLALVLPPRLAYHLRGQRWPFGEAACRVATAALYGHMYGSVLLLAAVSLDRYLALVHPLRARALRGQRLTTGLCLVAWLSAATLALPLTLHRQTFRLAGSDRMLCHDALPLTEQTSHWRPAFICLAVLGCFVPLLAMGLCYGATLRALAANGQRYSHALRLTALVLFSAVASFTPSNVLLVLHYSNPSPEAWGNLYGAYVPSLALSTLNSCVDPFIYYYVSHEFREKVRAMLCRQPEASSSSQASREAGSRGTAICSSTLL

[5] = test system: Platelet; experiment: Antiplatelet aggregation activity in ICR mouse plasma assessed as inhibition of thrombin induced platelet aggregation upto 1 uM preincubated for 5 mins followed by aggregation inducer addition and measured after 5 mins by light transmission aggregometry; type: functional, cell-based; details: time 10.0 min
[6] = molecular target: T2, Platelet glycoprotein VI (Mus musculus) (UniProt P0C191); experiment: Antagonist activity at GPVI in ICR mouse plasma assessed as inhibition of collagen induced platelet aggregation upto 1 uM preincubated for 5 mins followed by aggregation inducer addition and measured after 5 mins by light transmission aggregometry; type: cell-free; details: time 10.0 min
T2 sequence (whole entry): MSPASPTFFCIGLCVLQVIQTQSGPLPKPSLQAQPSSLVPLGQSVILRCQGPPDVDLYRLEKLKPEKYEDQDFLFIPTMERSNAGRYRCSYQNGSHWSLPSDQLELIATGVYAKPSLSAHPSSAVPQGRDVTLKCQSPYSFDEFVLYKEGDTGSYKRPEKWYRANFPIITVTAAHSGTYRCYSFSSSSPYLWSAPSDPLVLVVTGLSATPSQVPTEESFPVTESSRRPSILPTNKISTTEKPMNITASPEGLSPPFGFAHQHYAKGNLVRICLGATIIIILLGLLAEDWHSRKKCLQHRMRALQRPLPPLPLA

[7] = test system: Platelet; experiment: Antagonist activity at P2Y1/P2Y12 in ICR mouse plasma assessed as inhibition of ADP induced platelet aggregation upto 1 uM preincubated for 5 mins followed by aggregation inducer addition and measured after 5 mins by light transmission aggregometry; type: cell-free; details: time 10.0 min
[8] = molecular target: T3, Thromboxane A2 receptor (Mus musculus) (UniProt P30987); experiment: Antagonist activity at thromboxane A2 receptor in ICR mouse plasma assessed as inhibition of U46619 induced platelet aggregation upto 1 uM preincubated for 5 mins followed by aggregation inducer addition and measured after 5 mins by light transmission aggregometry; type: functional, cell-free; details: time 10.0 min
T3 sequence (whole entry): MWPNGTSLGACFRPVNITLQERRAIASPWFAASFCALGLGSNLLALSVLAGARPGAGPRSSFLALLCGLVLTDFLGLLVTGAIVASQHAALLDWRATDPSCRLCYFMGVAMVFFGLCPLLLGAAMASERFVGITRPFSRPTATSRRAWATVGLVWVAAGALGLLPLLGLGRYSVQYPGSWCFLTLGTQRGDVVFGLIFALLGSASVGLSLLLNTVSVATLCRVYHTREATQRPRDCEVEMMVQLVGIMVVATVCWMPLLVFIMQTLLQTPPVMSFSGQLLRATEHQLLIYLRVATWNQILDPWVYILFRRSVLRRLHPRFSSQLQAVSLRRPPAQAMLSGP

[9] = molecular target: T4, Platelet glycoprotein VI (Homo sapiens) (UniProt Q9HCN6); experiment: Antagonist activity at GPVI in human platelet rich plasma assessed as inhibition of collagen induced platelet aggregation at >=4 uM preincubated for 5 mins followed by aggregation inducer addition and measured after 5 mins by light transmission aggregometry; type: cell-free; details: filed as antagonist, time 10.0 min
T4 sequence (whole entry): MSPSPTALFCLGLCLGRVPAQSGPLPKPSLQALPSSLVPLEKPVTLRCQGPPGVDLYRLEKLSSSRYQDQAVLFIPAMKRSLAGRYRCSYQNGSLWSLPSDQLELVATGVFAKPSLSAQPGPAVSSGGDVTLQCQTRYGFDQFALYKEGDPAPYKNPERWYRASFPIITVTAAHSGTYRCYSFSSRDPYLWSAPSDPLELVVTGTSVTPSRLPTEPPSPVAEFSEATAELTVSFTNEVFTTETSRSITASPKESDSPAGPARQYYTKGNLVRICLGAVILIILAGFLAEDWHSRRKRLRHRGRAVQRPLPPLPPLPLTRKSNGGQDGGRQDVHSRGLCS

[10] = test system: Plasma; experiment: Anticoagulation activity in ICR mouse platelet poor plasma assessed as elongation of aPTT upto 20 uM incubated for 3 mins; type: functional, cell-free
[11] = test system: Plasma; experiment: Anticoagulation activity in ICR mouse platelet poor plasma assessed as elongation of prothrombin time upto 20 uM incubated for 3 mins; type: functional, cell-free
[12] = Terminal elimination half life in ICR mouse at 2 mg/kg, iv measured upto 24 hrs by LC-MS/MS analysis; type: ADME, organism-based; details: in vivo, read-out: beta t1/2 (converted)
[13] = AUC (0 to t) in ICR mouse at 2 mg/kg, iv measured upto 24 hrs by LC-MS/MS analysis; type: ADME, organism-based; details: in vivo
[14] = Clearance in ICR mouse at 2 mg/kg, iv measured upto 24 hrs by LC-MS/MS analysis; type: ADME, organism-based; details: in vivo
[15] = Terminal elimination half life in ICR mouse at 12 mg/kg, po measured upto 24 hrs by LC-MS/MS analysis; type: ADME, organism-based; details: in vivo, read-out: beta t1/2 (converted)
[16] = Tmax in ICR mouse at 12 mg/kg, po measured upto 24 hrs by LC-MS/MS analysis; type: ADME, organism-based; details: in vivo
[17] = Cmax in ICR mouse at 12 mg/kg, po measured upto 24 hrs by LC-MS/MS analysis; type: ADME, organism-based; details: in vivo
[18] = AUC (0 to t) in ICR mouse at 12 mg/kg, po measured upto 24 hrs by LC-MS/MS analysis; type: ADME, organism-based; details: in vivo
[19] = Oral bioavailability in ICR mouse at 12 mg/kg measured upto 24 hrs by LC-MS/MS analysis; type: ADME, organism-based; details: in vivo
[20] = molecular target: Voltage-gated inwardly rectifying potassium channel KCNH2 (Homo sapiens, UniProt Q12809); experiment: Inhibition of hERG expressed in HEK293 cells by whole cell patch clamp assay; type: toxicity, cell-based
[21] = test system: Plasma; experiment: Ex vivo antiplatelet aggregation activity in po dosed ICR mouse […] assessed as inhibition of ADP induced platelet aggregation measured after 2 hrs by light transmission aggregometry; type: functional, organism-based; details: dose 1-12 mg/kg
[22] = test system: Plasma; experiment: Ex vivo antiplatelet aggregation activity in po dosed ICR mouse […] assessed as inhibition of PAR4-activated peptide AYPGFK-NH2 induced platelet aggregation measured after 2 hrs by light transmission aggregometry; type: functional, organism-based; details: dose 1-12 mg/kg
[23] = test system: Plasma; experiment: Ex vivo antiplatelet aggregation activity in ICR mouse […] assessed as inhibition of ADP induced platelet aggregation at 6 to 12 mg/kg, po measured after 2 hrs by light transmission aggregometry relative to control; type: functional; details: dose 6-12 mg/kg
[24] = test system: Plasma; experiment: Ex vivo antiplatelet aggregation activity in ICR mouse […] assessed as inhibition of PAR4-activated peptide AYPGFK-NH2 induced platelet aggregation at 6 to 12 mg/kg, po measured after 2 hrs by light transmission aggregometry relative to control; type: functional; details: dose 6-12 mg/kg
[25] = Toxicity in C57BL/6J mouse assessed as prolongation of bleeding time at 3 to 12 mg/kg, po administered via oral gavage and measured after 2 hrs; type: organism-based; details: in vivo, dose 3-12 mg/kg
[26] = test system: Plasma; experiment: Ex vivo antiplatelet aggregation activity in ICR mouse […] assessed as inhibition of ADP induced platelet aggregation at 6 mg/kg, po measured after 2 hrs by light transmission aggregometry; type: functional, organism-based
[27] = test system: Plasma; experiment: Ex vivo antiplatelet aggregation activity in ICR mouse […] assessed as inhibition of PAR4-activated peptide AYPGFK-NH2 induced platelet aggregation at 6 mg/kg, po measured after 2 hrs by light transmission aggregometry; type: functional, organism-based
[28] = molecular target: T1, Proteinase-activated receptor 4 (Mus musculus); experiment: Antagonist activity at PAR4 in ICR mouse plasma assessed as inhibition of PAR4-activated peptide AYPGPK-NH2 induced platelet aggregation at 100 to 1000 nM preincubated for 5 mins followed by aggregation inducer addition and measured after 5 mins by light transmission aggregometry; type: cell-free; details: filed as antagonist, dose 100-1000 nM, time 10.0 min
[29] = test system: Platelet; experiment: Antiplatelet aggregation activity in ICR mouse plasma assessed as inhibition of thrombin induced platelet aggregation upto 8 uM preincubated for 5 mins followed by aggregation inducer addition and measured after 5 mins by light transmission aggregometry; type: functional, cell-based; details: time 10.0 min
[30] = molecular target: T2, Platelet glycoprotein VI (Mus musculus); experiment: Antagonist activity at GPVI in ICR mouse plasma assessed as inhibition of collagen induced platelet aggregation upto 8 uM preincubated for 5 mins followed by aggregation inducer addition and measured after 5 mins by light transmission aggregometry; type: cell-free; details: time 10.0 min
[31] = test system: Platelet; experiment: Antagonist activity at P2Y1/P2Y12 in ICR mouse plasma assessed as inhibition of ADP induced platelet aggregation upto 8 uM preincubated for 5 mins followed by aggregation inducer addition and measured after 5 mins by light transmission aggregometry; type: cell-free; details: time 10.0 min
[32] = molecular target: T3, Thromboxane A2 receptor (Mus musculus); experiment: Antagonist activity at thromboxane A2 receptor in ICR mouse plasma assessed as inhibition of U46619 induced platelet aggregation upto 8 uM preincubated for 5 mins followed by aggregation inducer addition and measured after 5 mins by light transmission aggregometry; type: functional, cell-free; details: time 10.0 min

Voltage-gated inwardly rectifying potassium channel KCNH2, sequence (Q12809 whole entry): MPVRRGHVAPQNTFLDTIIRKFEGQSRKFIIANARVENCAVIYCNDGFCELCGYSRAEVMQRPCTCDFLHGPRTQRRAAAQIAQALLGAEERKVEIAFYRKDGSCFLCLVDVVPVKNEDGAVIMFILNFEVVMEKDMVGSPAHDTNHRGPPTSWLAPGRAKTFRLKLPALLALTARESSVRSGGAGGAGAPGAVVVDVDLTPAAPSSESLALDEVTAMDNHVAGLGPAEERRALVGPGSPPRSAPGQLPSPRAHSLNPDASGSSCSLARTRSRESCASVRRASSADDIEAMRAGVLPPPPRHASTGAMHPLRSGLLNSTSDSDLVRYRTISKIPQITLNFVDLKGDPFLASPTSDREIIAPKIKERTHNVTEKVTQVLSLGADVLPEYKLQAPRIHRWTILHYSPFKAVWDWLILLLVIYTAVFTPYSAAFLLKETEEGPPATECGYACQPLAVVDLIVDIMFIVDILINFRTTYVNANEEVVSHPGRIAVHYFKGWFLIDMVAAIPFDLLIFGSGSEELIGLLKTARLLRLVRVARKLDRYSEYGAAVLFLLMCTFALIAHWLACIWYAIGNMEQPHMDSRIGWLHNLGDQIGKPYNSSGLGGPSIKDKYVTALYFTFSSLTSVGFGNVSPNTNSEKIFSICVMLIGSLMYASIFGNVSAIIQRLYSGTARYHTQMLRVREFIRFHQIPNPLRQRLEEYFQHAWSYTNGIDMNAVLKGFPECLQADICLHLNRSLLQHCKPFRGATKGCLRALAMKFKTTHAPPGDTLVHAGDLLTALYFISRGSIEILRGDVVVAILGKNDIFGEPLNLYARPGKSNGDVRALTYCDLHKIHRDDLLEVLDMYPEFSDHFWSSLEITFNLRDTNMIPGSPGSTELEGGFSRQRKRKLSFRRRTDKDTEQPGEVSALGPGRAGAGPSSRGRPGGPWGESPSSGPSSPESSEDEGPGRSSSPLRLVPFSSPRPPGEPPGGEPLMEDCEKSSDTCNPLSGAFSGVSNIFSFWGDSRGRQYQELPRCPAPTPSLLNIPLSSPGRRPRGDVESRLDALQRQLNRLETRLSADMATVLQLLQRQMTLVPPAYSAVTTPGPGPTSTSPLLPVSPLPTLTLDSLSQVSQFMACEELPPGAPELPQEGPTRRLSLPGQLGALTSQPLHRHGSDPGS

half-life at 1 µM [1] | IC50 [2] | Activity [6] | Activity [7] | Activity [8] | half-life [12] | AUC(0-t) at 24 h [13] | clearance [14] | half-life [15] | Tmax [16] | Cmax [17] | AUC(0-t) at 24 h [18] | bioavailability [19] | SMILES | inhibition at 20 µM [3] | Activity [5] | Activity [10] | Activity [11] | IC50 [20] | Activity [21] | Activity [22] | also measured
1.63 h | 26.1 nM | inactive | inactive | inactive | 11.3 h | 1250 ng·h/mL | 23.8 mL/min/kg | 7.32 h | 1.67 h | 325 ng/mL | 3460 ng·h/mL | 45.1% | COc1nn2cc(-c3cc4ccc5c(c4o3)OC(COc3ccc(F)cc3)CO5)nc2s1 (stereo not given) | 85.9% | inactive | inactive | inactive | 21600 nM | Dose-Dependent Effect | Dose-Dependent Effect | Activity [4]: Active; Activity [9]: Active; inhibition (INH) [23]: >90%; inhibition (INH) [24]: >90%; Activity [25]: Non-Toxic
 |  |  |  |  |  |  |  |  |  |  |  |  | COc1nn2cc(-c3cc4ccccc4o3)nc2s1 |  |  |  |  |  |  |  | Activity [26]: inactive; Activity [27]: inactive
0.708 h | 14.2 nM | inactive | inactive | inactive | 38.3 h | 5390 ng·h/mL | 3 mL/min/kg | 29.5 h | 2 h | 204 ng/mL | 3040 ng·h/mL | 9.61% | COc1nn2cc(-c3cc4ccc5c(c4o3)OCC(COc3ccc(F)cc3)O5)nc2s1 (stereo not given) | 87.2% | inactive | inactive | inactive | > 30000 nM | Dose-Dependent Effect | Dose-Dependent Effect | Activity [28]: Active; Activity [29]: inactive; Activity [30]: inactive; Activity [31]: inactive; Activity [32]: inactive; inhibition (INH) [23]: >90%; inhibition (INH) [24]: >90%; Activity [25]: Non-Toxic
